Assay results: ChEMBL document CHEMBL5236572, “Bioactive Aurones, Indanones, and Other Hemiindigoid Scaffolds: Medicinal Chemistry and Photopharmacology Perspectives” (J Med Chem, 2022)

Tests used:
[1] = Cytotoxicity against human C8166 cells assessed as reduction in cell viability by MTT assay; type: toxicity, cell-based
[2] = Selectivity index, ratio of CC50 for cytotoxicity against human C8166 cells to EC50 for antiviral activity against HIV-1 infected in human C8166 cells; type: toxicity, cell-based; conditions: read-out: Ratio CC50/EC50
[3] = system: Human immunodeficiency virus 1; experiment: Antiviral activity against HIV-1 infected in human C8166 cells assessed as reduction in virus-induced cytopathic effect by MTT assay; type: functional, organism-based; conditions: Human immunodeficiency virus 1, C8166
SH-SY5Y = experiment: Cytotoxicity against human SH-SY5Y cells assessed as reduction in cell viability by MTT assay; type: functional, cell-based
NB-4 = experiment: Cytotoxicity against human NB-4 cells assessed as reduction in cell viability by MTT assay; type: functional, cell-based
THP-1 [4] = experiment: Antiinflammatory activity against human THP-1 cells assessed as inhibition of LPS-stimulated iNOS expression at 50 uM incubated for 1 hrs followed by LPS stimulation for 4 hrs by ELISA; type: functional; conditions: time 5 hrs
THP-1 [5] = experiment: Antiinflammatory activity against human THP-1 cells assessed as inhibition of LPS-stimulated TNF-alpha production at 40 uM incubated for 1 hrs followed by LPS stimulation for 4 hrs by ELISA; type: functional; conditions: time 5 hrs
RAW264.7 = experiment: cells; conditions: Mus musculus
[6] = biological target: Amyloid-beta precursor protein (Homo sapiens, UniProt P05067); experiment: Binding affinity to human brain amyloid-beta fibril
PMNL = experiment: Anti-inflammatory activity in human polymorphonuclear neutrophils assessed as reduction in cell movement incubated for 24 hrs by fluorescence analysis; type: functional, cell-based
Escherichia coli = experiment: Antibacterial activity against Escherichia coli NCIB 86 assessed as zone of inhibition incubated for 24 hrs by agar well diffusion method; type: functional
Klebsiella pneumoniae = experiment: Antibacterial activity against Klebsiella pneumoniae NCIB 418 assessed as zone of inhibition incubated for 24 hrs by agar well diffusion method; type: functional
Staphylococcus aureus = experiment: Antibacterial activity against Staphylococcus aureus NCIB 8588 assessed as zone of inhibition incubated for 24 hrs by agar well diffusion method; type: functional
Candida albicans = experiment: […] activity against Candida albicans clinical isolate assessed as zone of inhibition incubated for 24 hrs by agar well diffusion method; type: functional
Bacillus cereus = experiment: Antibacterial activity against Bacillus cereus NCIB 6349 assessed as zone of inhibition incubated for 24 hrs by agar well diffusion method; type: functional
Bacillus anthracis = experiment: Antibacterial activity against clinical isolate Bacillus anthracis assessed as zone of inhibition incubated for 24 hrs by agar well diffusion method; type: functional
Pseudomonas aeruginosa = experiment: Antibacterial activity against Pseudomonas aeruginosa NCIB 950 assessed as zone of inhibition incubated for 24 hrs by agar well diffusion method; type: functional
Bacillus subtilis = experiment: Antibacterial activity against Bacillus subtilis NCIB 3610 assessed as zone of inhibition incubated for 24 hrs by agar well diffusion method; type: functional
[7] = system: Geobacillus stearothermophilus; experiment: Antibacterial activity against Geobacillus stearothermophilus NCIB 8222 assessed as zone of inhibition incubated for 24 hrs by agar well diffusion method; type: functional
Pseudomonas fluorescens = experiment: Antibacterial activity against Pseudomonas fluorescens NCIB 3756 assessed as zone of inhibition incubated for 24 hrs by agar well diffusion method; type: functional
Shigella dysenteriae = experiment: Antibacterial activity against Shigella dysenteriae clinical isolate assessed as zone of inhibition incubated for 24 hrs by agar well diffusion method; type: functional
[8] = biological target: Peroxisome proliferator-activated receptor gamma (Homo sapiens, UniProt P37231); experiment: Binding affinity to PPARgamma (unknown origin) by competitive binding assay
Peroxisome proliferator-activated receptor gamma, sequence (P37231 whole entry): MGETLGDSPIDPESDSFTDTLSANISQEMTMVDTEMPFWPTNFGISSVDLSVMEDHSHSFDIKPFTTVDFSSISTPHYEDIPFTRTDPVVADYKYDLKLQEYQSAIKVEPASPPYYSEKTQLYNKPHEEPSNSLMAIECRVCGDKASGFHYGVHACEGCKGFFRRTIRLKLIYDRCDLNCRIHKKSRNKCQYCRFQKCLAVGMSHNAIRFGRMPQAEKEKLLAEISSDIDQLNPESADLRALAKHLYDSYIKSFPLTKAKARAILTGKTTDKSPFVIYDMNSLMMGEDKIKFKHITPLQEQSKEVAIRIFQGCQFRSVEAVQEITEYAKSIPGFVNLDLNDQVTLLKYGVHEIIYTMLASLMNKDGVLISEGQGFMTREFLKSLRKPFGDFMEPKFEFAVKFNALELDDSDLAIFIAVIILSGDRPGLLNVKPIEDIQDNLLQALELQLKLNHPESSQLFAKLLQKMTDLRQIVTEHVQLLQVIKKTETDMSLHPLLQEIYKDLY

Amyloid-beta precursor protein, sequence (P05067 whole entry): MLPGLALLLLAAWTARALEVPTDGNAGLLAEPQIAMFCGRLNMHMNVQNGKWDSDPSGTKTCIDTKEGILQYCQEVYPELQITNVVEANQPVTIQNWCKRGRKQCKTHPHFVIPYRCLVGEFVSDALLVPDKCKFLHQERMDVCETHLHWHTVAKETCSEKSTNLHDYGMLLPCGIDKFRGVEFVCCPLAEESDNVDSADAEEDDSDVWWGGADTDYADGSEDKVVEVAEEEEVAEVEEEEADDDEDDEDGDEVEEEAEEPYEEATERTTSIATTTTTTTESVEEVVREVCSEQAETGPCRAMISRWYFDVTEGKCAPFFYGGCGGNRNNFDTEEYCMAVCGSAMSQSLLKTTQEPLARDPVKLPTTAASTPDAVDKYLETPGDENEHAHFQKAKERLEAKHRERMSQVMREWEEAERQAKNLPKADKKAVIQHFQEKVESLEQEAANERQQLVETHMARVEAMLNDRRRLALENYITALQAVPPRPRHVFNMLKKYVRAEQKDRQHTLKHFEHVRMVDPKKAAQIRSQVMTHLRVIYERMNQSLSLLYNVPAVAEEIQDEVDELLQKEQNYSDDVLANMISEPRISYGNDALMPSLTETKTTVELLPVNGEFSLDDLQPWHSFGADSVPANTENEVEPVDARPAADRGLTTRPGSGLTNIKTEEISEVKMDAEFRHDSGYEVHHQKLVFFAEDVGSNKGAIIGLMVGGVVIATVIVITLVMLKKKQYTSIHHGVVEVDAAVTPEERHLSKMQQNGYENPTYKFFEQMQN

Structure (SMILES): COc1cc2c(cc1O)C(=O)/C(=C/c1ccc(C(C)=O)cc1)O2
- CC50 [1]: > 200 µM
- selectivity ratio [2]: 82
- IC50 [3]: 2.4 µM
- IC50 (SH-SY5Y): 3.5 µM
- IC50 (NB-4): 3.4 µM

Structure (SMILES): O=C1/C(=C/c2ccc(CO)o2)Oc2ccccc21
- inhibition at 50 µM (THP-1 [4]): 30%
- inhibition at 40 µM (THP-1 [5]): 50%

Structure (SMILES): O=C1/C(=C/c2ccc(-c3ccc(CO)cc3)s2)Cc2ccccc21
- IC50 (RAW264.7): 4 µM
- Kd [6]: 0.39 µM

Structure (SMILES): CCOC(OCC)c1ccc(/C=C2\Cc3ccccc3C2=O)cc1
- IC50 (PMNL): 7 µM

Structure (SMILES): COc1ccc2c(c1)O/C(=C\c1cn(-c3ccccc3)nc1-c1cccs1)C2=O
- inhibition zone (IZ) (Escherichia coli): 13 mm
- inhibition zone (IZ) (Klebsiella pneumoniae): 13 mm
- inhibition zone (IZ) (Staphylococcus aureus): 13 mm
- inhibition zone (IZ) (Candida albicans): 13 mm
- inhibition zone (IZ) (Bacillus cereus): 13 mm
- inhibition zone (IZ) (Bacillus anthracis): 13 mm
- inhibition zone (IZ) (Pseudomonas aeruginosa): 13 mm
- inhibition zone (IZ) (Bacillus subtilis): 13 mm
- inhibition zone (IZ) [7]: 13 mm
- inhibition zone (IZ) (Pseudomonas fluorescens): 13 mm
- inhibition zone (IZ) (Shigella dysenteriae): 13 mm

Structure (SMILES): COc1cc2c(cc1OC)C(=O)/C(=C/c1ccccc1OCCc1cccs1)C2
- IC50 [8]: 0.62 µM
